Read-outs that look alike come from different tables or passages of the source.
Columns and labels:
[1] = system: M-NFS-60 mouse myeloid leukemia lymphocytes; experiment: CSF-1R-related cell proliferation experiment (Cell Titer Glo), M-NFS-60 cells with M-CSF; format: cell-based; settings: Lymphocyte, 72 h, 3 days, CTG, * = average of multiple tests
Experimental: C. CSF-1R-Related Cell Proliferation Experiment
Functional effects of compounds on cell proliferation were evaluated by using Cell Titer Glo (CTG) study in the present invention. M-NFS-60 mouse myeloid leukemia lymphocytes (cat. No. CCBJ078) from National Institutes For Food and Drug Control were cultured in the incubator under conditions of RPMI 1640 (Gibco, cat. No. 11875-119), 10% fetal bovine serum (Gibco, 10099-141), human 10 ng/mL M-CSF macrophage colony-stimulating factor (R&D, cat. No. MVN0915101), 37° C., and 5% CO2. Since ATP is an index for viable cell metabolism, CTG (Promega, #G7573) reagent is a homogeneous detection method for detecting the number of viable cells in the culture by quantifying ATP. Therefore, compound-mediated inhibition for cell proliferation/survival was evaluated by quantifying ATP content in cells, and the specific experimental process was as follows:
1. The cells were plated into a tissue-culture-medium-treated 96-well plate (Costar #3904) with 5,000 cells/well/80 μL fresh culture medium;
2. 24 hours later, 10 μL culture medium containing testing compound with 10-fold of final concentration was added to each well;
3. 10 μL of culture medium containing M-CSF with 10-fold of the final concentration was then added to each well;
4. dosage effect was evaluated by testing the 3-fold serial dilutions of the compound;
(§1) 5. after the cells were incubated for 3 days at 37° C. and 5% CO2, the inhibition on cell survival was quantified after 50 μL of CTG was added and the luminescence assay was performed;
(§2) 6. the compound concentration leading to half maximal inhibitory (IC50) and the compound concentration leading to absolute half maximal inhibitory (Absolute IC50) were measured by a plate reader (M1000, Tecan) and a four-parameter curve fit in Graphpad Prism 7.

[2] = target: CSF-1R (Homo sapiens, UniProt P07333); experiment: CSF-1R in vitro biochemical kinase study (ADP-Glo assay); settings: 500 μM ATP, * = average of multiple tests, read-out: Enzymatic experiment CSF1R IC50
Experimental: A. CSF-1R In Vitro Biochemical Kinase Study
In the present invention, the inhibitory activity of compounds against the CSF-1R activity was determined by using CSF-1R ADP-Glo assay. The compound-mediated inhibition effect was achieved by inhibiting the production of ADP from consumption of ATP, and the activities of compounds were evaluated by using the ADP-Glo kit (Promega, cat. No. V9101). The specific experimental process was as follows:
1. The kinase reaction performed in the present invention was carried out in a 384-well plate (Perkinelmer, cat. No. 6007290), 3.95 nM of CSF-1R, 500 μM of ATP, and 0.2 mg/mL of polypeptide (Poly (Glu4, Try1), Sigma, cat. No. P0275) were respectively weighed and added to each well:
2. following reagents were then added to each well to reach the final reaction system: 40 mM Tris, pH 7.5, 20 mM MgCl2, 0.01% Triton X-100, 0.1 mg/mL BSA, 2.5 mM DTT, and 0.1% DMSO;
3. the reaction was conducted at 30° C. for 60 min;
4. then an equal volume of stop solution (ADP-Glo) was added to the kinase reaction system;
5. the mixed solution was incubated at 25° C. for 60 min, and the kinase reaction was then terminated;
6. a two-fold volume of detection reagent was then added to each well;
7. the mixed solution was incubated at 25° C. for 30 min;
8. the compound IC50 value was measured by using a plate reader (Tecan, M1000) and a four-parameter curve was generated in Graphpad Prism.

[3] = system: MV-4-11 human acute monocytic leukemia cells; experiment: Cell proliferation (Cell Titer Glo), MV-4-11 cells (FLT3); format: cell-based; settings: MV4-11, 72 h, 3 days, CTG, * = average of multiple tests, read-out: Cytological experiment FLT3 IC50
Experimental: (§3) D. CSF-1R-Related Cell Proliferation Experiment
(§4) Functional effects of compounds on the proliferation of several cell lines were evaluated by Cell Titer Glo (CTG) studies in the present invention, and effects of the compounds on the proliferation of different cells were evaluated to determine the selectivity degree of the compounds. In the experiment, M-07e human cytomegalic leukemia cells (cat. No. CBP60791) from Nanjing Kebai Biotechnology Co., Ltd. were cultured in an incubator under conditions of RPMI1640 (Gibco, cat. No. 11875-119), 20% fetal bovine serum (Gibco, 10099-141), human 10 ng/mL GM-CSF granulocyte macrophage colony-stimulating factors (R&D, cat. No. 215-GM-010), 37° C., and 5% CO2; and Kasumi-1 human acute myeloblastic leukemia cells (cat. No. CBP60524) were cultured in an incubator under conditions of RPMI1640 (Gibco, cat. No. 11875-119), 20% fetal bovine serum (Gibco, 10099-141), 37° C., and 5% CO2: NCI-H1703 human non-small cell lung squamous carcinoma cells (cat. No. CBP60115) were cultured in an incubator under conditions of RPMI1640 (Gibco, cat. No. 11875-119), 10% fetal bovine serum (Gibco, 10099-141), 37° C., and 5% CO2; MV-4-11 human acute monocytic leukemia cells (cat. No. CBP60522) were cultured in an incubator under conditions of IMDM (Invitrogen, cat. No. 12440053), 20% fetal bovine serum (Gibco, 10099-141), 37° C., and 5% CO2. Since ATP is an index for viable cell metabolism, CTG (Promega, #G7573) reagent is a homogeneous detection method for detecting the number of viable cells in the culture by quantifying ATP. Therefore, compound-mediated inhibition for cell proliferation/survival was evaluated by quantifying ATP content in cells, and the specific experimental process was as follows.
III) MV-4-11 Human Acute Monocytic Leukemia Cell
1. The cells were inoculated into a tissue-culture-medium-treated 96-well plate (Costar #3904) with 5000 cells/well/90 μL fresh culture medium, and cultured for 24 hrs:
2. the next day, 10 μL of culture medium containing testing compound with 10-fold of final concentration was added to each well;
(§5) 3. the dosage effect was evaluated by testing 3-fold serial dilutions of the compound, which started from 18 μM;
4. after the cells were incubated for 3 days at 37° C. and 5% CO2, the inhibition on cell survival was quantified after 50 μL of CTG was added and the luminescence assay was performed;
(§6) 5. the compound concentration leading to half maximal inhibitory (IC50) and the compound concentration leading to absolute half maximal inhibitory (Absolute IC50) were measured by a plate reader (M1000, Tecan) and a four-parameter curve fit in Graphpad Prism 7.

[4] = system: M-07e human cytomegalic leukemia cells; experiment: Cell proliferation (Cell Titer Glo), M-07e cells with SCF (KIT); format: cell-based; settings: 72 h, 3 days, CTG, * = average of multiple tests, read-out: Cytological experiment KIT IC50
Experimental: as §3, §4
I) M-07e Human Cytomegalic Leukemia Cell:
1. The cells were plated into a tissue-culture-medium-treated 96-well plate (Costar #3904) with 3500 cells/well/80 μL fresh culture medium, and cultured for 24 hrs;
(§7) 2. the next day, 10 μL of culture medium containing testing compound with 10-fold of final concentration was added to each well:
3. 10 μL of culture medium containing SCF recombinant human stem cell factor (R&D, cat. No. 7466-SC-010) with 10-fold of the final concentration was then added to each well;
4. the dosage effect was evaluated by testing 4-fold serial dilutions of the compound, which started from 18 μM;
as §1, §2

[5] = system: NCI-H1703 human non-small cell lung squamous carcinoma cells; experiment: Cell proliferation (Cell Titer Glo), NCI-H1703 cells (PDGFRA); format: cell-based; settings: 72 h, 3 days, CTG, * = average of multiple tests, read-out: Cytological experiment PDGFRA IC50
Experimental: as §3, §4
II) NCI-H1703 Human Non-Small Cell Lung Squamous Carcinoma Cell
1. The cells were inoculated into a tissue-culture-medium-treated 96-well plate (Costar #3904) with 5000 cells/well/90 μL fresh culture medium, and cultured for 24 hrs;
as §7, §5
4. after the cells were incubated for 3 days at 37° C. and 5% CO2, the inhibition on cell survival was quantified after 50 μL of CTG was added and the luminescence assay was performed:
as §6

[6] = read-out: Cytological experiment CSF1R IC50
[7] = absolute half maximal inhibition, read-out: Cytological experiment CSF-1R Absolute IC50

CSF-1R, sequence (P07333 20-972): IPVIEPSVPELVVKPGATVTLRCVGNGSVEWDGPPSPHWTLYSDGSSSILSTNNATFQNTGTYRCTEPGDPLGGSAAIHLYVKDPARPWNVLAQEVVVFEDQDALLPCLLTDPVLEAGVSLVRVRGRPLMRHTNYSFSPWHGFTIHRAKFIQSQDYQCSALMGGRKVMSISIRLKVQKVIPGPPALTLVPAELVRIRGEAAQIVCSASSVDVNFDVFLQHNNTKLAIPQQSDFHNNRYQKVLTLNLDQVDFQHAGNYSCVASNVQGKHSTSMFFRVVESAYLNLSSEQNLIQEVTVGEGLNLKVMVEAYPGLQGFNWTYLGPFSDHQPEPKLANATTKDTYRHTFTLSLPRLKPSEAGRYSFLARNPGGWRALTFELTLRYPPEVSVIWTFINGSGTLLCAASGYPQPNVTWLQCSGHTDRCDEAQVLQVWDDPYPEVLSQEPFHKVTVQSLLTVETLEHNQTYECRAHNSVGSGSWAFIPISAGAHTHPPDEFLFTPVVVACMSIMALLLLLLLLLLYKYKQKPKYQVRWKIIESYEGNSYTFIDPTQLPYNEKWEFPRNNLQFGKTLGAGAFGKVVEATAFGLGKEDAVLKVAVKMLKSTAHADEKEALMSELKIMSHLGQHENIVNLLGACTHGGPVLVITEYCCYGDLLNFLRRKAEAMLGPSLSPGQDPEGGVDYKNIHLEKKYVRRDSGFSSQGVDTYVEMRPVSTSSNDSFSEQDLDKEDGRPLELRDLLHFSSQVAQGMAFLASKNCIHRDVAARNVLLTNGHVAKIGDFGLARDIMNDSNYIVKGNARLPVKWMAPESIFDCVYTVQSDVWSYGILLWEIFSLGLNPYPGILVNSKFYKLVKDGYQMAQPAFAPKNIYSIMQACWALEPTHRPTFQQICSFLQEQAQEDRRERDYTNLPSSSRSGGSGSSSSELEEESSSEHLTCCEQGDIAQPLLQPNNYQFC

Row | SMILES | IC50 [1, 6] [nM] | IC50 [1, 7] [nM] | IC50 [2] [nM] | IC50 [3] [µM] | IC50 [4] [nM] | IC50 [5] [nM]
1 | Cc1nc(-c2cnc3n(c2=O)CCN3C)ccc1Oc1ccnc(-c2cnn(C)c2)c1 [Example 3, 1-methyl-6-(6-methyl-5-((2-(1-methyl-1H-pyrazol-4-yl)pyridin-4-yl)oxy)pyridin-2-yl)-2,3-dihydroimidazo[1,2-a]pyrimidin-5(1H)-one] | 249 | 185 | 157 | – | – | –
2 | Cc1nc(-c2cnc3n(c2=O)CC[C@@H](C)N3)ccc1Oc1ccnc(-c2cnn(C)c2)c1 [Example 6, (R)-8-methyl-3-(6-methyl-5-((2-(1-methyl-1H-pyrazol-4-yl)pyridin-4-yl)oxy)pyridin-2-yl)-6,7,8,9-tetrahydro-4H-pyrimido[1,2-a]pyrimidin-4-one] | > 2000 | 710 | 296 | – | – | –
3 | Cc1nc(-c2cnc3n(c2=O)CCCN3C)ccc1Oc1ccnc(-c2cn[nH]c2)c1 [Example 7, 3-(5-((2-(1H-pyrazol-4-yl)pyridin-4-yl)oxy)-6-methylpyridin-2-yl)-9-methyl-6,7,8,9-tetrahydro-4H-pyrimido[1,2-a] pyrimidin-4-one] | 498 | 488 | 84.2 | > 18 | > 1120 | > 2000
4 | CCn1cc(-c2cc(Oc3ccc(-c4cnc5n(c4=O)CCCN5C)nc3C)ccn2)cn1 [Example 8] | 151 | 361 | 77.7 | – | – | –
5 | Cc1nc(-c2cnc3n(c2=O)CCCN3C2CCC2)ccc1Oc1ccnc(-c2cnn(C)c2)c1 [Example 9, 9-cyclobutyl-3-(6-methyl-5-((2-(1-methyl-1H-pyrazol-4-yl)pyridin-4-yl)oxy)pyridin-2-yl)-6,7,8,9-tetrahydro-4H-pyrimido[1,2-a]pyrimidin-4-one] | 64.8 | 58.9 | 68.3 | 2 | 321 | 1580
6 | Cc1nc(-c2cnc3n(c2=O)CCC(C)N3C)ccc1Oc1ccnc(-c2cnn(C)c2)c1 (stereo not drawn) [Example 10, 8,9-dimethyl-3-(6-methyl-5-((2-(1-methyl-1H-pyrazol-4-yl)pyridin-4-yl)oxy)pyridin-2-yl)-6,7,8,9-tetrahydro-4H-pyrimido[1,2-a]pyrimidin-4-one] | 134 | 124 | 108 | > 18 | > 18000 | > 18000
7 | CCCN1CCCn2c1ncc(-c1ccc(Oc3ccnc(-c4cnn(C)c4)c3)c(C)n1)c2=O [Example 11, 3-(6-methyl-5-((2-(1-methyl-1H-pyrazol-4-yl)pyridin-4-yl)oxy)pyridin-2-yl)-9-propyl-6,7,8,9-tetrahydro-4H-pyrimido [1,2-a]pyrimidin-4-one] | 222 | 273 | 319 | > 6 | > 2000 | > 6000
8 | Cc1nc(-c2cnc3n(c2=O)CC[C@@H]2CCCN32)ccc1Oc1ccnc(-c2cnn(C)c2)c1 [Example 12] | 85.2 | 77.8 | 107 | > 18 | 755 | > 2000

Source: patent publication US11130762B2, “Azaaryl derivative, preparation method therefor, and application thereof for use in pharmacy” (Abbisko Therapeutics Co., Ltd., priority 2017, dated 2021)
